Experimental data from patent publication US11926596B2, “Inhibitors of Rho associated coiled-coil containing protein kinase” (KADMON CORPORATION, LLC, priority 2017, dated 2024).
Read-outs that look alike come from different tables or passages of the source.

Legend:
[1] = biological target: T1, recombinant ROCK1 (amino acids 1-535) (Homo sapiens, UniProt Q13464); experiment: Z'-lyte kinase assay, ROCK1; type: biochemical; settings: for inhibition at 3 µM: read-out: ROCK1 % inh
T1 construct: recombinant ROCK1 (amino acids 1-535) and ROCK2; purchased ThermoFisher Scientific
Experimental: (§1) Determination of compounds ROCK inhibitory activity in vitro (Z'lyte assay): recombinant ROCK1 (amino acids 1-535) and ROCK2 (amino acids 1-552) proteins were purchased from ThermoFisher Scientific. Compounds activities were measured by Z′-lyte kinase kit (ThermoFisher Scientific) and IC50s were calculated.
(§2) Table 2, below, provides in vitro and cellular inhibition of ROCKs by compounds of the invention. Compounds activities were measured by Z′-lyte kinase kit (ThermoFisher Scientific). […] IC50s were calculated using the GraphPad Prism software with kinase activities data that were collected from points 9 serial dilution of compounds treatment. The ROCK inhibition in A7R5 cells and NIH3T3 (Acta2-Luc) cells was performed as described above.

[2] = test system: luciferase reporter driven by the human ACTA2 gene promoter in NIH3T3 cells; experiment: NIH3T3 cells Acta2-promoter driven-luciferase assay; type: cell-based; settings: plus TGF 1, 24 hr, read-out: NIH3T3, Acta2-luc, IC50
Experimental: NIH3T3 cells Acta2-promoter driven-luciferase assay: A NIH3T3 cell line stably expressing a luciferase reporter driven by the human ACTA2 gene promoter (−1000-1 bp) was established (NIH3T3-Acta2-luciferase). The cells were plated to confluence and treated with the test compounds plus TGF 1 for 24 hr. Cells were then lysed and luciferase activity was measured using the LightSwitch luciferase kit from Active Motif.

[3] = test system: phospho-myosin light chains (ppMlc, Thr18/Ser19) in A7R5 cells; experiment: A7R5 in-cell ELISA, phospho-myosin light chain; type: cell-based, rat; settings: Rattus norvegicus
Experimental: Determination of compounds ROCK inhibitory activity in A7R5 cells: rat aortic smooth muscle cell line A7R5 cells were maintained and treated in DMEM medium with 10% of fetal bovine serum. Cells were seeded with density of 5,000 cells/well in 96-well plates for 24 hours and subsequently treated 90 min with testing compounds. Cells were then fixed and processed according to the In-Cell ELISA Colorimetric Detection Kit manual (Thermo Scientific). Cellular phospho-myosin light chains (ppMlc, Thr18/Ser19) levels were determined after treatments of DMSO control or test compounds using the In-Cell ELISA kit. The percent inhibition rate was calculated by applying the data obtained with 1 μM (or 10 μM) compound treatment to the formula, [1-(compound/DMSO)]×100%. ppMlc data obtained with 9 points 2-fold serial dilution of compounds were applied to the nonlinear regression curve fit function of the GraphPad Prism software to calculate the In cell IC50s.
A7R5 cells were treated with 9 points 2 fold serial dilution of compounds and ppMlc (T18/S19) levels were determined in order to calculate cellular IC50s of the compounds.
Two steps of measurements were adopted for pMLC/A7R5 IC50. Percent inhibition rates were calculated with a single dose (1 μM or 10 μM) compounds treatment to screen for active compounds and then cellular IC50s were measured only in compounds that have over 50% of inhibition rates.

[4] = Brain and plasma concentrations in mouse by HPLC/MS/MS after 2.5 mg/kg IV; type: in vivo; settings: for concentration at 0.25 h / concentration at 2 h: iv; for Kp at 0.25 h / Kp at 2 h: brain/plasma; for Kp at 0.25 h: read-out: Mean Brain/Plasma Ratio at 0.25 hr; for Kp at 2 h: read-out: Mean Brain/Plasma Ratio at 2 hr
Experimental: Brain and plasma concentrations of select ROCK inhibitors were also evaluated in mouse by HPLC/MS/MS at 15 min and 2 hrs following 2.5 mg/kg IV drug administration.

[5] = biological target: T2, recombinant ROCK2 (amino acids 1-552) (Homo sapiens, UniProt O75116); experiment: Z'-lyte kinase assay, ROCK2; type: biochemical
T2 construct: ROCK2 (amino acids 1-552) proteins were purchased from ThermoFisher Scientific; purchased ThermoFisher Scientific
Experimental: as §1, §2

sAPPP = settings: direct i.p. injection into hippocampus, rodent model of AD; cited from earlier work
[6] = cited from earlier work
[7] = test system: rat oligodendrocytes with rat dorsal root ganglia (DRG) explants; experiment: Rat oligodendrocytes with rat dorsal root ganglia (DRG) explants co-culture; type: cell-based
Description: At the same time, the ROCK inhibitor also facilitated axonal support of oligodentrocye by organized manner, which was visualized by staining the mature oligodendrocyte marker MBP.

[8] = Mouse pharmacokinetic study, plasma and brain distribution 2 hours after dosing; type: in vivo; settings: for concentration at 2 h / Kp at 2 h: 2 hours post-dose; for Kp at 2 h: brain/plasma, read-out: Brain/Plasma Ratio
Experimental: In a mouse pharmacokinetic study, 2 hours after dosing, animal tissues were harvested to determine the compound distribution.

[9] = test system: ROCK target MYPT1 phosphorylation in HCT116 ROCK1KO and ROCK2KO cells; experiment: pMypt (T853) western blotting in HCT116 ROCK1KO and ROCK2KO cells; type: cell-based; settings: 110 nM, 90 min
Experimental: FIG. 2. […] HCT116 cells with either a ROCK1 or ROCK2 knockout (ROCK1KO and ROCK2KO, respectively) were treated with the inhibitor for 90 min and pMypt (T853) levels were visualized by western blotting.
A CRISPR/CAS9 system was used to create HCT116 cells containing a knock out for either ROCK1 or ROCK2. The ROCK1KO and ROCK2KO cells were treated with the Example 2 compound for 90 min and pMypt (T853) levels were visualized by western blotting.

[10] = test system: Human oligodendrocyte/neuron progenitor cells; experiment: Human oligodendrocyte/neuron progenitor cell differentiation (Nestin/MAP2 staining); type: cell-based; settings: cultured 2 & 14 days with or without inhibitor
Experimental: FIG. 3. Human oligodendrocyte/neuron progenitor cells were cultured in vitro with or without ROCK inhibitor (Example 2 compound) for 2 & 14 days. Nestin and MAP2 proteins were visualized by staining with commercial antibodies to identify different stages of neuronal cell differentiation.
Human oligodendrocyte/neuron progenitor cells were cultured in vitro with or without ROCK inhibitor for 2 & 14 days. Nestin and MAP2 proteins were visualized by staining with commercial antibodies to identify different stages of neuronal cell differentiation.

[11] = 1.5 h, A7R5 cells, 90 min, read-out: pMLC IC50 A7R5
[12] = brain, 2.5 mg/kg, read-out: Mean Conc. at 0.25 hr, Brain
[13] = plasma, 2.5 mg/kg, read-out: Mean Conc. at 0.25 hr, Plasma
[14] = plasma, 2.5 mg/kg, read-out: Mean Conc. at 2 hr, Plasma
[15] = A7R5 cells, ppMlc (T18/S19), 9 points 2 fold serial dilution, read-out: ppMIc IC50

T1 sequence (Q13464 1-535): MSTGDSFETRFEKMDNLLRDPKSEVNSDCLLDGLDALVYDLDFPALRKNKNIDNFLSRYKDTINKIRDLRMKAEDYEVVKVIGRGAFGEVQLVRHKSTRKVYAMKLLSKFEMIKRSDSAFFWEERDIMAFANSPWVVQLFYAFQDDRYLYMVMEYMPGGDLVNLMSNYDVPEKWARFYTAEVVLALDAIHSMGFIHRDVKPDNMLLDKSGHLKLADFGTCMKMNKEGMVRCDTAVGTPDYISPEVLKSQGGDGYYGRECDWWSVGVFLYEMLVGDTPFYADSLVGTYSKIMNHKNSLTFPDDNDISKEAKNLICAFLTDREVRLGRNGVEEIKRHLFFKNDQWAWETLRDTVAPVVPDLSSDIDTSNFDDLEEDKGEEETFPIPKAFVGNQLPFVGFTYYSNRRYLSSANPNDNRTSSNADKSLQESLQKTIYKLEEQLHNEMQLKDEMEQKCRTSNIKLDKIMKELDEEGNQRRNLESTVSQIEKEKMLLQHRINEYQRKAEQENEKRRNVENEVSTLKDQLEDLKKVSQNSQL
T2 sequence (O75116 1-552): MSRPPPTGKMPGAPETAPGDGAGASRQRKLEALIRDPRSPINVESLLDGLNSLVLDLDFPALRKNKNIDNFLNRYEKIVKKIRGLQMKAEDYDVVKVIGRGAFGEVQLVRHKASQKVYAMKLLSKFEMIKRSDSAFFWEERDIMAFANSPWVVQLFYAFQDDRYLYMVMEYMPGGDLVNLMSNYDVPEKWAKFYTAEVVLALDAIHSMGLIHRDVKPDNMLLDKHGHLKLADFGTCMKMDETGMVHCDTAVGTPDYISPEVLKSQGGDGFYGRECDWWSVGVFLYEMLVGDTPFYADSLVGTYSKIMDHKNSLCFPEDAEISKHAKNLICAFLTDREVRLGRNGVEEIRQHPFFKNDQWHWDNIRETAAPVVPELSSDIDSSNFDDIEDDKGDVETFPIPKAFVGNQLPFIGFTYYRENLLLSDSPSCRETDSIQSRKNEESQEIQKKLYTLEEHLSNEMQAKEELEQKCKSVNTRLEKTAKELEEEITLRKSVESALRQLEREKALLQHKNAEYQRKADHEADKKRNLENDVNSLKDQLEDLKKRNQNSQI

Row | SMILES | IC50 [1] [nM] | IC50 [2] [nM] | IC50 [3, 11] [nM] | concentration at 0.25 h [4, 12] [ng/g] | Kp at 0.25 h [4] | Kp at 2 h [4] | concentration at 0.25 h [4, 13] [ng/mL] | concentration at 2 h [4, 14] [ng/mL] | IC50 [5] [nM] | IC50 [3, 15] [nM] | inhibition at 3 µM [1] [%] | inhibition at 3 µM ([5]; read-out: ROCK2 % inh) [%] | also measured
1 | CNC(C(=O)Nc1ccc2[nH]ncc2c1)c1cccc(OC)c1 (stereo not shown) [Example 41, N-(1H-indazol-5-yl)-2-(3-methoxyphenyl)-2-(methylamino)acetamide] | 3.2 | 539 | 304 | 566 | 1.33 | 8.41 | 427 | 2.14 | 17 |  |  |  | Mean Conc. at 0.25 hr, Brain ([4]; 2.5 mg/kg): 541 ng/g; inhibition at 1 µM ([5]; @ 1 μM, read-out: ROCK2 % inh): 99.5%
2 | CN(C)CCOc1cc(-c2cn[nH]c2)ccc1NC(=O)C1COc2ccccc2O1 (stereo not shown) [SR3677] |  |  |  |  |  |  |  |  |  |  |  |  | effect on sAPPP (sAPPP): lowering sAPPP; brain penetration ([6]; in vivo): lack of brain penetration; half-life ([6]; oral PK properties): < 1 h; F (oral) ([6]; oral): 5%
3 | CNC(C(=O)Nc1ccc2[nH]ncc2c1)c1ccc(Oc2cccc(OC)c2)cc1 (stereo not shown) [Example 15, N-(1H-indazol-5-yl)-2-(4-(3-methoxyphenoxy)phenyl)-2-(methylamino)acetamide] | 13 | 219 | 124 | 853 | 2.17 | 6.99 | 394 | 41.4 | 10 | 124 |  |  | concentration at 2 h ([4]; brain, 2.5 mg/kg, read-out: Mean Conc. at 2 hr, Brain): 288 ng/g
4 | CCNC(C(=O)Nc1ccc2[nH]ncc2c1)c1ccc(C)cc1 (stereo not shown) [Example 30, 2-(ethylamino)-N-(1H-indazol-5-yl)-2-(p-tolyl)acetamide] | 16 | 960 | 502 |  |  |  |  |  | 13 |  | 99 | 98.8 | 
5 | CNC(C(=O)Nc1ccc2[nH]ncc2c1)c1ccccc1 (stereo not shown) [Example 2, N-(1H-indazol-5-yl)-2-(methylamino)-2-phenylacetamide] | 25 | 885 | 304 |  |  |  |  |  | 21 | 304 | 98.8 | 98.7 | axonal support of oligodendrocyte (MBP / neurofilament staining) [7]: facilitated; cytoskeletal organization / myelin segments (neurofilament staining) [7]: producing many shorter ordered myelin segments; BBB penetrant property ([8]; 2 hours after dosing): excellent; concentration at 2 h ([8]; brain, IV 10 mg base/kg, read-out: Brain Concentration): 699 ng/g; concentration at 2 h ([8]; brain, PO 10 mg base/kg, read-out: Brain Concentration): 700 ng/g; concentration at 2 h ([8]; brain, PO 30 mg base/kg, read-out: Brain Concentration): 2860 ng/g; concentration at 2 h ([8]; brain, PO 100 mg base/kg, read-out: Brain Concentration): 19400 ng/g; Kp at 2 h ([8]; IV 10 mg base/kg): 3.31; Kp at 2 h ([8]; PO 10 mg base/kg): 1.73; Kp at 2 h ([8]; PO 30 mg base/kg): 2.04; Kp at 2 h ([8]; PO 100 mg base/kg): 2.08; concentration at 2 h ([8]; plasma, IV 10 mg base/kg, read-out: Plasma Concentration): 211 ng/mL; concentration at 2 h ([8]; plasma, PO 10 mg base/kg, read-out: Plasma Concentration): 405 ng/mL; concentration at 2 h ([8]; plasma, PO 30 mg base/kg, read-out: Plasma Concentration): 1400 ng/mL; concentration at 2 h ([8]; plasma, PO 100 mg base/kg, read-out: Plasma Concentration): 9290 ng/mL; pMypt (T853) levels, MYPT1 phosphorylation [9]: efficiently blocked; IC50 ([3]; pMLC in A7R5 cells, read-out: cellular ROCK inhibition IC50): 252 nM; mature neuronal cell marker MAP2 expression [10]: significantly facilitated; neurite outgrowth [10]: improved
